From patent US10300052B2, “Methods for increasing CFTR activity” (THE UAB RESEARCH FOUNDATION, priority 2012, dated 2019)

Tests used:
CFTR = biological target: T1, CFTR (Homo sapiens, UniProt P13569); experiment: Short-circuit current (Isc) in primary non-CF human bronchial epithelial (HBE) cells; assay type: cell-based; conditions: ivacaftor 10 μM after pre-stimulation with 100 nM forskolin, compared to forskolin alone (FIG. 1B)
T1 construct: from tissue; host or cells: normal human trachea/bronchus from donor explant organs
Experimental: In primary non-CF human bronchial epithelial (HBE) cells, ivacaftor also augmented CFTR-dependent anion transport activity following pre-stimulation with 100 nM forskolin, a dose chosen to induce cAMP levels matching CSE-exposed cells, increasing CFTR-dependent short-circuit current (Isc) compared to that stimulated by forskolin alone (FIG. 1B).
Primary human bronchial epithelial (HBE) cells were derived from lung explants after written informed consent was obtained from CF and non-CF subjects with confirmed CFTR genetics by methods described previously. Briefly, tissues were debrided immediately after surgical resection, washed twice in Minimum Essential Media (MEM) with 0.5 mg/ml DTT (Sigma-Aldrich, St. Louis, Mo.) and 25 U/ml DNAse I (Roche, Basel, Switzerland), and then placed in dissociation media containing MEM, 2.5 U/ml DNAse I, 100 μg/ml ceftazidime, 80 μg/ml tobramycin, 1.25 μg/ml amphotericin B, and 4.4 U/ml pronase (Sigma-Aldrich) for 24-36 h at 4° C. […]
Short-circuit current (Isc) was measured under voltage clamp conditions using MC8 voltage clamps and P2300 Ussing chambers (Physiologic Instruments, San Diego, Calif.) as previously described (2). […] A one-second three-mV pulse was imposed every 10 seconds to monitor resistance calculated using Ohm's law. […]

human bronchial tissue = experiment: μOCT imaging of airway epithelial function in human bronchial tissue
Experimental: FIGS. 6A-6C show the effects of CFTR activators on airway epithelial function in human bronchial tissue by μOCT. FIGS. 6A-6C show ASL depth (FIG. 6A), CBF (FIG. 6B) and MCT (FIG. 6C), respectively in response to ivacaftor treatment (10 μM).
To further investigate the role of CFTR activators in modulating airway epithelial cell function, CFTR activators were studied in combination with human bronchial tissue from a failed healthy donor. Human bronchial tissue was obtained and maintained as described herein. Control experiments were performed with the human bronchial tissue being exposed to DMSO control only (0.2%) and compared to ivacaftor treatment. FIGS. 6A-6C show ASL depth, CBF and MCT, respectively.
Samples of human trachea tissue were obtained from normal donor explant organs not selected for lung transplantation. Lung, mainstem bronchi, and trachea were resected en-bloc, transferred on wet ice, and large airways excised. Airway tissues were then immersed in ice cold DMEM following resection for transfer, then allowed to equilibrate to room temperature prior to mOCT imaging.
The μOCT system is a spectral-domain OCT implementation with several improvements to standard OCT that yield high resolution in both lateral and axial directions. The general layout and axial resolution characterization have been described (Liu et al., PLOSOne, 8(1), E54473-2013). A super-continuum source (Fianium SC450) provides the high-bandwidth, short coherence length light necessary for high axial resolution ([…]). […]
μOCT imaging was performed on various cells cultures with illumination incident on the apical side of the cells. […] ASL and PCL were measured directly from the thicknesses of the visible layers in the image with a correction applied for the index of refraction in the liquid (n=1.33). ASL and PCL were evaluated at 5 equally distributed regions of the image. CBF and MCT were determined from a time series of images. […] Up to 10 regions of ciliary activity per image sequence were assessed for CBF. […]

T1 sequence (P13569 whole entry): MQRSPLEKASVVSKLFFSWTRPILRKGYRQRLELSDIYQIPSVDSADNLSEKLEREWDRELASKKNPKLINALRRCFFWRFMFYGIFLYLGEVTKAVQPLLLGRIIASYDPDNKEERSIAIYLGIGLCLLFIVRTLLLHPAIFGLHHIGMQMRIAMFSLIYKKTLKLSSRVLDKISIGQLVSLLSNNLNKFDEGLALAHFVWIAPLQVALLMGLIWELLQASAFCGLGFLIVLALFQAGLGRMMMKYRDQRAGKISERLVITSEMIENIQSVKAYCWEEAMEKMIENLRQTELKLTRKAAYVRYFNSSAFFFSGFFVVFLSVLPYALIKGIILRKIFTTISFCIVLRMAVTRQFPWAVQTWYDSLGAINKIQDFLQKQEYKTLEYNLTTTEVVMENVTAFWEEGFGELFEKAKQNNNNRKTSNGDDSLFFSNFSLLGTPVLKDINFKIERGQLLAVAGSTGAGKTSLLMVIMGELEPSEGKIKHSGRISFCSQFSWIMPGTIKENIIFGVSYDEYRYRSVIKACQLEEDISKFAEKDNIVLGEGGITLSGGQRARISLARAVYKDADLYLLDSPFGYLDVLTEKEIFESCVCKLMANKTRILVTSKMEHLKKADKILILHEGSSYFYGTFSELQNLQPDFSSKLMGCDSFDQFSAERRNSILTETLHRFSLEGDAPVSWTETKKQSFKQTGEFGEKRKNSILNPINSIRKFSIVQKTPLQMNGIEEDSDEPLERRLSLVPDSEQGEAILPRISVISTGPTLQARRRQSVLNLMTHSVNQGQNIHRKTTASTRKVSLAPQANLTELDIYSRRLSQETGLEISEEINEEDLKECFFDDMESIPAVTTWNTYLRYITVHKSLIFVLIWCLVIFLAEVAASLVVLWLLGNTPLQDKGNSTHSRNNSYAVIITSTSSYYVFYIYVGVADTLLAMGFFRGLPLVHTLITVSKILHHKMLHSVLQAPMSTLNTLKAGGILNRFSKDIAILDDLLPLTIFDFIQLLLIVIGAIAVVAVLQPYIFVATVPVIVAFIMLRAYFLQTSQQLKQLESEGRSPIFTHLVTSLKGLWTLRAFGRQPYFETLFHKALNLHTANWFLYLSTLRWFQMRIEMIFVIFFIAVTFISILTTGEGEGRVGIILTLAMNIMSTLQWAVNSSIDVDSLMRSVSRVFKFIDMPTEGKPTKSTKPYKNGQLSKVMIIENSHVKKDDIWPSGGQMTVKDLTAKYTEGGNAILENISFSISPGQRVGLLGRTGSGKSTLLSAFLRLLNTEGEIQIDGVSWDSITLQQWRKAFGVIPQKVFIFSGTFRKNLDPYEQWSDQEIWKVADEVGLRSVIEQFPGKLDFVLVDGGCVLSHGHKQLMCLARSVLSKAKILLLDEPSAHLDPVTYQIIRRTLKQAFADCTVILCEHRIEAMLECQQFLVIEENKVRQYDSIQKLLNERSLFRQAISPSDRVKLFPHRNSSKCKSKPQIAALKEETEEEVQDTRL

- CFTR-dependent anion transport activity (short-circuit current, Isc) (CFTR): augmented
SMILES: CC(C)(C)c1cc(C(C)(C)C)c(NC(=O)c2c[nH]c3ccccc3c2=O)cc1O [ivacaftor]
- CBF frequency (human bronchial tissue; ivacaftor 10 μM vs DMSO control (FIG. 6B)): significantly increased
- ASL depth (human bronchial tissue; ivacaftor 10 μM, DMSO control approximately 10 microns (FIG. 6A)): approximately 30 microns
- MCT (human bronchial tissue; ivacaftor 10 μM, control less than 0.01 mm/min (FIG. 6C)): ~0.04 mm/min
